Test results taken from ChEMBL document CHEMBL5131566, “Small-Molecule Thioesters as SARS-CoV-2 Main Protease Inhibitors: Enzyme Inhibition, Structure-Activity Relationships, Antiviral Activity, and X-ray Structure Determination” (J Med Chem, 2022).

Columns and labels:
[1] = molecular target: T1, Replicase polyprotein 1ab (Severe acute respiratory syndrome coronavirus 2, UniProt P0DTD1); assay: Inhibition of SARS CoV-2 main protease
[2] = tested on: Calu-3; assay: Cytotoxicity against human Calu-3 cells assessed as reduction in cell […] at 10 uM incubated for 24 hrs by cell titer glo luminescent assay; assay type: toxicity, cell-based; conditions: calu-3, 24 h
[3] = tested on: SARS-CoV-2; assay: microbe, parasite or virus in culture; conditions: Severe acute respiratory syndrome coronavirus 2, Vero 76
[4] = tested on: SARS-CoV-2; assay: microbe, parasite or virus in culture; conditions: Severe acute respiratory syndrome coronavirus 2, Calu-3
[5] = tested on: Vero 76; assay: Cytotoxicity against African green monkey Vero 76 cells assessed as reduction in cell […] at 10 uM incubated for 24 hrs by cell titer glo luminescent assay; assay type: toxicity, cell-based; conditions: chlorocebus sabaeus, vero 76, 24 h
[6] = molecular target: Replicase polyprotein 1ab (Severe acute respiratory syndrome coronavirus 2) (UniProt P0DTD1); assay: Time dependent inhibition of recombinant his tagged SARS CoV-2 main protease expressed in Escherichia coli BL21 assessed as ratio of Kinact/Ki using MCA-AVLQSGFR-K(DNP)-K-NH2 as substrate pre-incubated for 5 mins followed by substrate addition measured after 60 mins by FRET based assay
[7] = molecular target: T1, Replicase polyprotein 1ab; assay: Inhibition of recombinant his tagged SARS CoV-2 main protease expressed in Escherichia coli BL21 using Boc-Abu-Tle-Leu-Gln-AMC37 as fluorogenic substrate pre-incubated for 5 mins followed by substrate addition measured after 60 mins by FRET based assay
[8] = molecular target: T1, Replicase polyprotein 1ab; assay: Inhibition of recombinant his tagged SARS CoV-2 main protease expressed in Escherichia coli BL21 assessed as inhibition constant using Boc-Abu-Tle-Leu-Gln-AMC37 as fluorogenic substrate pre-incubated for 5 mins followed by substrate addition measured after 60 mins by FRET based assay
[9] = tested on: Severe acute respiratory syndrome-related coronavirus; assay: Inhibition of recombinant SARS CoV-1 main protease expressed using MCA-AVLQSGFR-K(DNP)-K-NH2 as substrate at 10 uM incubated for 2 hrs by FRET based assay
[10] = Inhibition of recombinant SARS CoV-1 main protease expressed using MCA-AVLQSGFR-K(DNP)-K-NH2 as substrate incubated for 2 hrs by FRET based assay; set-up: species or system Severe acute respiratory syndrome-related coronavirus
[11] = Inhibition of MERS-CoV -Mpro using Ac-Abu-Tle-Leu-Gln-ACC as substrate incubated for 2 hrs by FRET based assay; set-up: species or system Middle East respiratory syndrome-related coronavirus
[12] = molecular target: Replicase polyprotein 1ab (Severe acute respiratory syndrome coronavirus 2) (UniProt P0DTD1); assay: Inhibition of recombinant his tagged SARS CoV-2 main protease expressed in Escherichia coli BL21 using Boc-Abu-Tle-Leu-Gln-AMC37 as fluorogenic substrate at 10 uM pre-incubated for 5 mins followed by substrate addition measured after 60 mins by FRET based assay relative to control
[13] = molecular target: T1, Replicase polyprotein 1ab; assay: Inhibition of full length SARS CoV-2 main protease expressed in Escherichia coli BL21 (DE3) expression system using Mca-AVLQSGFR-K(Dnp)K as substrate by fluorescence method
[14] = Stability of the compound assessed as glutathione reactivity by measuring reduction at pH 7.4 by HPLC/MS method; assay type: physicochemical; conditions: buffer

Row | Structure (SMILES) | Activity [2] | Activity [5] | Ratio [6] [M⁻¹ s⁻¹] | IC50 [7] [nM] | Ki [8] [nM] | IC50 [11] [nM] | also measured
1 | S=C(SSC(=S)N1CCOCC1)N1CCOCC1 |  |  |  |  |  |  | IC50 [1]: 4030 nM
2 | O=C(Oc1cncc(Cl)c1)c1cccc2[nH]ccc12 | Non-Toxic | Non-Toxic |  |  |  |  | EC50 [3]: 9.59 nM; EC50 [4]: 28.5 nM
3 | O=C(Sc1nc2ccccc2s1)c1ccc(-c2ccccc2)s1 |  |  | 2100 | 125 | 42 |  | 
4 | O=C(Sc1nncs1)c1cc2ccccc2[nH]1 | Non-Toxic | Non-Toxic |  | 143 | 74.4 | 535 | inhibition [9]: > 50%; EC50 [3]: 642 nM; IC50 [10]: 3210 nM; EC50 [4]: 562 nM
5 | O=C(Sc1ccc(Cl)cc1)c1cc2ccccc2[nH]1 |  |  |  |  |  |  | inhibition [12]: 4%
6 | Cc1nnc(SC(=O)c2cccc3[nH]ccc23)s1 | Non-Toxic | Non-Toxic |  | 60 |  | 486 | EC50 [4]: 367 nM
7 | Cc1nnc(SC(=O)c2ccc3cc[nH]c3c2)s1 | Non-Toxic | Non-Toxic | 5850 | 54.7 | 186 | 271 | 
8 | Cc1nnc(SC(=O)c2cc3ccccc3[nH]2)n1C(=O)c1cc2ccccc2[nH]1 |  |  | 12200 | 281 | 77.3 |  | 
9 | Cc1nnc(SC(=O)c2ccc3[nH]ccc3c2)s1 | Non-Toxic | Non-Toxic | 3370 | 72.3 | 393 | 945 | IC50 [10]: 7350 nM
10 | Cc1nnc(SC(=O)c2cc3ccccc3o2)s1 |  |  | 5190 | 316 | 35.7 |  | 
11 | Cc1nnc(SC(=O)c2ccc(Br)o2)s1 |  |  |  | 481 |  |  | 
12 | Cc1ccnc(SC(=O)c2cc3ccccc3[nH]2)n1 | Non-Toxic | Non-Toxic |  | 87.6 | 33.2 | 1310 | inhibition [9]: > 50%; EC50 [3]: 185 nM; IC50 [10]: 1520 nM; EC50 [4]: 734 nM
13 | Cc1cc(C)nc(SC(=O)c2cc3ccccc3[nH]2)n1 |  |  | 1790 | 2030 | 773 |  | 
14 | O=C(Sc1ncccn1)c1cc2ccccc2[nH]1 | Non-Toxic | Non-Toxic |  | 11.4 | 14.1 | 303 | inhibition [9]: > 50%; IC50 [10]: 60 nM; EC50 [4]: 111 nM
15 | O=C(Sc1nc2ccccc2s1)c1cc2ccccc2s1 |  |  | 2000 | 190 | 161 |  | 
16 | O=C(Sc1ncccn1)c1ccc(-c2ccccc2)o1 | Non-Toxic | Non-Toxic |  | 18.1 |  | 79 | 
17 | Cc1nnc(SC(=O)c2ccc(-c3ccccc3)o2)s1 | Non-Toxic | Non-Toxic |  | 34.4 |  |  | EC50 [4]: 100 nM
18 | Cc1nnc(SC(=O)c2cc3ccccc3[nH]2)o1 |  |  | 3880 | 1220 | 119 |  | 
19 | Oc1ccc2ccccc2c1SSc1c(O)ccc2ccccc12 |  |  |  |  |  |  | IC50 [13]: 2350 nM
20 | O=C(Sc1nnc(C(F)(F)F)s1)c1cc2ccccc2[nH]1 |  |  |  |  |  |  | inhibition [12]: 26%
21 | Cc1nnc(SC(=O)c2cccc3cc[nH]c23)s1 | Non-Toxic | Non-Toxic |  | 159 | 250 | 196 | inhibition [9]: > 50%; IC50 [10]: 2150 nM; EC50 [4]: 437 nM
22 | O=C(Sc1nc2ccccc2s1)c1ccc(-c2ccccc2)o1 |  |  | 515 | 166 | 612 |  | 
23 | Cc1nnc(SC(=O)c2ccc(C#Cc3ccccc3)o2)s1 | Non-Toxic | Non-Toxic | 5200 | 250 | 34.4 | 378 | inhibition [9]: > 50%; IC50 [10]: 2760 nM

Row | Structure (SMILES) | Activity [2] | Activity [5] | Ratio [6] [M⁻¹ s⁻¹] | IC50 [7] [nM] | Ki [8] [nM] | IC50 [11] [nM] | also measured
24 | O=C(Sc1ncccn1)c1ccc2ccccc2n1 | Non-Toxic | Non-Toxic |  | 20.6 |  | 613 | inhibition [9]: > 50%; IC50 [10]: 253 nM
25 | Cc1nnc(SC(=O)c2ccc3ccccc3c2)s1 | Non-Toxic | Non-Toxic |  | 454 | 21.1 | 526 | inhibition [9]: > 50%; IC50 [10]: 1650 nM; EC50 [4]: 45 nM
26 | Cc1nnc(SC(=O)c2cc3ccccc3[nH]2)s1 |  |  |  | 624 |  |  | 
27 | O=C(Sc1nc2ccccc2s1)c1ccc2ccccc2n1 |  |  | 5450 | 88.9 | 51 |  | Stability [14]: Stable
28 | COc1ccc2cc([C@H](C)C(=O)Sc3ncccn3)ccc2c1 |  |  | 33900 | 551 | 21 |  | 
29 | Cc1cc(C)nc(SC(=O)c2ccc(C#Cc3ccccc3)o2)n1 |  |  |  | 288 |  |  | 
30 | CCOc1nnc(SC(=O)c2cc3ccccc3[nH]2)s1 |  |  |  |  |  |  | inhibition [12]: 37%
31 | COc1nnc(SC(=O)c2cc3ccccc3[nH]2)s1 | Non-Toxic | Non-Toxic |  | 147 | 84.4 | 503 | EC50 [4]: 38.3 nM
32 | O=C(Sc1nc2ccccc2s1)c1cc2ccccc2[nH]1 | Non-Toxic | Non-Toxic |  | 117 | 72.6 |  | EC50 [4]: 137 nM
33 | CC(C)C[C@H](NC(=O)OCc1ccccc1)C(=O)N[C@H](C=O)CC1CCNC1=O (stereo partly drawn) |  |  |  |  |  | 78 | IC50 [10]: 44.6 nM
34 | O=C(Sc1ccc(Cl)cc1Cl)c1cc2ccccc2[nH]1 |  |  |  |  |  |  | inhibition [12]: 9%
35 | O=C(Sc1ncccn1)c1ccc(-c2ccccc2)s1 |  |  |  | 13.7 |  |  | 
36 | CSc1nnc(SC(=O)c2cc3ccccc3[nH]2)s1 | Non-Toxic | Non-Toxic | 11800 | 91.4 | 43 | 1130 | 
37 | Cc1nnc(SC(=O)c2cc3ccccc3n2C)s1 | Non-Toxic | Non-Toxic |  | 349 | 295 | 223 | EC50 [3]: 4.58 nM; EC50 [4]: 659 nM
38 | O=C(NCCN1C(=O)C=CC1=O)c1cc2ccccc2[nH]1 |  |  |  |  |  |  | IC50 [13]: 2080 nM
39 | O=C(Sc1nnc(C(F)(F)F)s1)c1ccc(C#Cc2ccccc2)o1 |  |  |  |  |  |  | inhibition [12]: 14%
40 | O=C(Sc1ncccn1)c1ccc(-c2ccc(Br)cc2)s1 | Non-Toxic | Non-Toxic |  | 14.4 |  |  | 
41 | O=C(Sc1ncccn1)c1cc2ccccc2s1 |  |  |  | 15.5 |  |  | 
42 | O=C(Sc1nc2ccccc2s1)c1cc2ccccc2o1 |  |  |  |  |  |  | inhibition [12]: 14%
43 | CCC(CC)COC(=O)[C@H](C)N[P@](=O)(OC[C@H]1O[C@@](C#N)(c2ccc3c(N)ncnn23)[C@H](O)[C@@H]1O)Oc1ccccc1 | Non-Toxic | Non-Toxic |  |  |  |  | EC50 [3]: 2.63 nM; EC50 [4]: 79.6 nM
44 | CCOc1ccc2cc(C(=O)Sc3nccc(C)n3)[nH]c2c1 |  |  |  |  |  |  | inhibition [12]: -8%
45 | Cc1nnc(SC(=O)c2ccc(-c3ccccc3)[nH]2)s1 |  |  | 5070 | 235 | 605 |  | 
46 | O=C(Sc1nc2ccccc2s1)c1ccc(-c2ccc(Br)cc2)o1 |  |  | 1490 | 255 | 13 |  | 
